Data reported in patent publication US20230320956A1, “DIARYLALKANE COMPOUNDS AND COMPOSITIONS FOR USE WITH SKIN AGING AND METHODS OF PRODUCTION THEREOF” (Unigen, Inc., priority 2022, published 2023).

System: keratinocytes (Hacat cell line)
Assay: Global gene expression (RNA-seq) in treated keratinocytes
Type: cell-based, human
Conditions: for Fold change (gene expression): 40 μM vs untreated; for Fold Enrichment / Number of Genes Differentially Expressed: 40 μM
Procedure: To determine specific expression changes dimethoxytolyl propylresorcinol exerted on human keratinocyte aging genes, keratinocytes (Hacat cell line) were treated dimethoxytolyl propylresorcinol at 40 μM and gene expression was analyzed by RNA-seq. Differential gene expression was compared to untreated keratinocytes and cells treated with 40 μM Retinol A to find genes involved in aging. […] Retinol was chosen as a positive control because retinoids have been described as having effective anti-aging and anti-wrinkle effects (Zasada M, 2019). We directly compared the effects of Retinol on keratinocytes with the same concentration of dimethoxytolyl propylresorcinol.

[1] = Gene Cluster Activation of MAPK activity
[2] = Gene Cluster Calcium ion binding
[3] = Gene Cluster Cell-cell signaling
[4] = Gene Cluster Cellular response to lipopolysaccharide
[5] = Gene Cluster Cellular response to retinoic acid
[6] = Gene Cluster Epidermis development
[7] = Gene Cluster Epithelial cell differentiation
[8] = Gene Cluster Extracellular exosome
[9] = Gene Cluster Extracellular matrix organization
[10] = Gene Cluster Extracellular region
[11] = Gene Cluster Extracellular space
[12] = Gene Cluster Growth factor activity
[13] = Gene Cluster Hyaluronan biosynthetic process
[14] = Gene Cluster Inflammatory response
[15] = Gene Cluster Intermediate filament cytoskeleton organization
[16] = Gene Cluster Keratinocyte differentiation
[17] = Gene Cluster Negative regulation of ERK1 and ERK2 cascade

COc1ccc(CCCc2ccc(O)cc2O)c(OC)c1C [dimethoxytolyl propylresorcinol, 1-(3-methyl-2,4-dimethoxyphenyl)-3-(2′,4′-dihydroxyphenyl)-propane]
Fold change (gene expression) (AHR - Aryl hydrocarbon receptor, Oxidative stress): 1.73 fold | Fold change (gene expression) (ANGPTL4 - Angiopoietin-like 4, Negative regulation of growth/Angiogenesis): 8.23 fold | Fold change (gene expression) (ANOS1 - Anosmin 1, ECM/Nerve adhesion): 0.49 fold | Fold change (gene expression) (BMP4 - Bone morphogenetic protein 4, Growth): 0.41 fold | Fold change (gene expression) (C3orf33 - Chromosome 3 open reading frame 33, Negative regulation of growth): 3.03 fold | Fold change (gene expression) (CD1D - CD1d molecule, ECM): 0.36 fold | Fold change (gene expression) (CDK5R1 - Cyclin-dependent kinase 5 activator 1, Growth/Skin barrier): 1.54 fold | Fold change (gene expression) (CEACAM1 - CEA cell adhesion molecule 1, Cell adhesion): 2.01 fold | Fold change (gene expression) (COL1A1 - Collagen type 1, ECM): 1.89 fold | Fold change (gene expression) (COL5A1 - Collagen type V alpha 1 chain, ECM): 0.24 fold | Fold change (gene expression) (CRISPLD2 - Cysteine-rich secretory protein LCCL domain-containing 2, ECM): 2.56 fold | Fold change (gene expression) (CXCL3 - C-X-C motif chemokine ligand 3, Immune signaling): 8.16 fold | Fold change (gene expression) (CYP1A1 - Cytochrome P450 family 1 subfamily A member 1, Drug metabolism): 5.04 fold | Fold change (gene expression) (ECM1 - Extracellular matrix protein 1, ECM): 2.49 fold | Fold change (gene expression) (EPHA4 - Ephrin type-A receptor 4, Cell adhesion, cell communication): 0.42 fold | Fold change (gene expression) (EREG - Epiregulin, Growth): 9.61 fold | Fold change (gene expression) (FABP5 - Fatty acid binding protein 5, Skin barrier): 1.68 fold | Fold change (gene expression) (FGF1 - Fibroblast growth factor 1, Growth): 0.43 fold | Fold change (gene expression) (FGF11 - Fibroblast growth factor 11, Growth): 0.56 fold | Fold change (gene expression) (FLRT2 - Fibronectin leucine-rich transmembrane protein 2, ECM): 0.30 fold | Fold Enrichment [1]: 2.39 fold | Number of Genes Differentially Expressed [1]: 14 | Fold Enrichment (Gene Cluster Angiogenesis): 2.79 fold | Number of Genes Differentially Expressed (Gene Cluster Angiogenesis): 34 | Fold Enrichment [2]: 1.49 fold | Number of Genes Differentially Expressed [2]: 58 | Fold Enrichment (Gene Cluster Cell development): 4.12 fold | Number of Genes Differentially Expressed (Gene Cluster Cell development): 9 | Fold Enrichment (Gene Cluster Cell surface): 1.85 fold | Number of Genes Differentially Expressed (Gene Cluster Cell surface): 53 | Fold Enrichment [3]: 2.59 fold | Number of Genes Differentially Expressed [3]: 36 | Fold Enrichment [4]: 3.08 fold | Number of Genes Differentially Expressed [4]: 19 | Fold Enrichment [5]: 3.14 fold | Number of Genes Differentially Expressed [5]: 12 | Fold Enrichment [6]: 4.52 fold | Number of Genes Differentially Expressed [6]: 21 | Fold Enrichment [7]: 2.87 fold | Number of Genes Differentially Expressed [7]: 11 | Fold Enrichment [8]: 1.23 fold | Number of Genes Differentially Expressed [8]: 183 | Fold Enrichment [9]: 2.05 fold | Number of Genes Differentially Expressed [9]: 22 | Fold Enrichment [10]: 1.60 fold | Number of Genes Differentially Expressed [10]: 136 | Fold Enrichment [11]: 1.97 fold | Number of Genes Differentially Expressed [11]: 140 | Fold Enrichment [12]: 3.63 fold | Number of Genes Differentially Expressed [12]: 32 | Fold Enrichment (Gene Cluster Growth): 5.23 fold | Number of Genes Differentially Expressed (Gene Cluster Growth): 8 | Fold Enrichment (Gene Cluster Heparin binding): 2.53 fold | Number of Genes Differentially Expressed (Gene Cluster Heparin binding): 22 | Fold Enrichment [13]: 10.45 fold | Number of Genes Differentially Expressed [13]: 4 | Fold Enrichment [14]: 2.61 fold | Number of Genes Differentially Expressed [14]: 54 | Fold Enrichment [15]: 7.32 fold | Number of Genes Differentially Expressed [15]: 6 | Fold Enrichment [16]: 3.13 fold | Number of Genes Differentially Expressed [16]: 13 | Fold Enrichment [17]: 3.47 fold | Number of Genes Differentially Expressed [17]: 11 | Fold Enrichment (Gene Cluster Negative regulation of cell proliferation): 2.17 fold
